In brackets after ≈: the same amount, converted by molar mass.

The term EC80 denotes the concentration needed for an effect of 80%.

Test [1] deals with Lepeophtheirus salmonis copepodids. Description: Activity in vitro against Lepeophtheirus salmonis at copepodid stage. The following applies: 1 hour contact in sea water, then 48 h in untreated sea water, no movement over 80 seconds, read-out: efficacy (EC80). As for the experimental part:
Activity in Vitro Against Lepeophtheirus Salmonis at Copepodid Stage Sea lice copepodids were used to seed a 96-well plate containing the test substances to be evaluated for antiparasitic activity. Each compound was tested by serial dilution in order to determine its minimal effective dose (MED). Copepodids were left in contact with the test compound diluted in sea water for 1 hour. They were then incubated in untreated sea water for 48 h. Efficacy against sea lice was then confirmed if no copepodid moved over a period of 80 seconds.

Test [2] has as its system Lepeophtheirus salmonis on Atlantic salmon. Kind of test: In vivo activity against Lepeophtheirus salmonis on Atlantic salmon using bath treatment application. To be noted: bath 2 ppm in salt water, 60 minutes. On the procedure: In Vivo Activity of Compound 8 Against Lepeophtheirus Salmonis on Atlantic Salmon using Bath Treatment Application Bath containing compound 8 at 2 ppm in salt water was prepared by dilution of a solution of compound 8 in DMSO. Fish (Atlantic salmons) had been previously infected with 2 cohorts of lice to ensure the presence of chalimus and motile lice at the time of treatment. This test was performed on thirty fish per group and was compared to 30 control fish that were bathed in sea water containing DMSO only (at an inclusion rate equal to that used in the test group using the most DMSO as solvent), for 60 minutes. The fish were then transferred to holding tanks and sampled for lice numbers at 3 and 10 days post treatment. Ten fish per group were anaesthetized with 2 phenoxy-ethanol and examined for louse settlement under a dissecting microscope. Differences in sea louse counts between each test group and the relevant control group (non treated) infested at the same time as the test group were assessed using Mann-Whitney Tests. Efficacy was calculated using the formula: % Efficacy=100−(100×mean of treatment group/mean of control).

Test [3] has the same test system. Description: In vivo activity against Lepeophtheirus salmonis on Atlantic salmon using injectable application. On the procedure: In Vivo Activity of Compound 8 Against Lepeophtheirus Salmonis on Atlantic Salmon using Injectable Application
Twenty Atlantic salmon (mean weights at about 100 g) were anaesthetized with 2-phenoxy ethanol, individually weighed and injected with 0.2 ml of compound 8 formulated in PEG300 at 2.5%, corresponding to a 50 mg/kg dose. Each treatment was administered by single IP injection and fish were then transferred to a flow through tank, the temperature of which was maintained between 6 and 14° C. Louse infection was by exposure of experimental fish to louse copepodids freshly hatched from Lepeophtheirus salmonis egg strings. The number of copepodids used was selected to provide a settlement rate of at least 10 lice per fish. Sea louse numbers were assessed when they had developed to chalimus stage III/IV or later on if needed.
Ten fish per group were anaesthetized with 2 phenoxy-ethanol and examined for louse settlement under a dissecting microscope. Differences in sea louse counts between each test group and the relevant control group (non treated) infested at the same time as the test group were assessed using Mann-Whitney Tests. Efficacy was calculated using the formula: % Efficacy=100−(100×mean of treatment group/mean of control).

The subject of test [4] is Lepeophtheirus salmonis adult lice. Description: In vitro activity against Lepeophtheirus salmonis at adult stage. To be noted: at 1 ppm; 60 minutes exposure, survival at 24 hours post exposure, 12° C. On the procedure:
In Vitro Activity of Compound 8 Against Lepeophtheirus Salmonis at Adult Stage
Ten mixed sex adult lice (non gravid, Lepeophtheirus salmonis) were removed from fish and exposed to a test compound at several dilution in filtered sea water and placed in an incubator at 12° C. in dark conditions. After 60 minutes exposure, lice were rinsed in clean sea water and transferred to petri dishes containing 100 mL of sea water. They were then returned to the incubator. Lice were examined for survival at 24 hours post exposure (moribund lice considered as dead)

Test [5] relates to Lepeophtheirus salmonis on Atlantic salmon. Description: In vivo activity against Lepeophtheirus salmonis on Atlantic salmon using in-feed application. The following applies: medicated pellets 9.8 mg/kg/day, 7 consecutive days. On the procedure:
In Vivo Activity of Compound 8 Against Lepeophtheirus Salmonis on Atlantic Salmon using In-Feed Application
Compound 8 was administered orally via medicated fish pellets at an average dose of 9.8 mg/kg/day during 7 consecutive days to 50 Atlantic salmon infected with lice (Lepeophtheirus salmonis). The medicated pellets were prepared by dry top coating of the compound 8, formulated as feed additive as described above, and over-oiling to seal (1% fish oil). Fish had been previously infected by exposure to louse. The number of copepodids used was selected to provide an settlement rate of at least 10 lice per fish. Treatment was done when lice had developed to pre-adult II and adult stages. Sea louse numbers were assessed 34 days post treatment. A second challenge using louse copepodids took place at 41 days post treatment. Sea louse numbers were assessed when they had developed to adults.
All fish were anaesthetized with 2 phenoxy-ethanol and examined for louse settlement under a dissecting microscope. Differences in sea louse counts between each test group and the relevant control group (non treated) infested at the same time as the test group were assessed using Mann-Whitney Tests. Efficacy was calculated using the formula: % Efficacy=100−(100×mean of treatment group/mean of control).

Where [6] appears, read: 50 mg/kg IP, 14 days post treatment, Chalimus III.
Setting [7] is: 50 mg/kg IP, 41 days post treatment, Chalimus III.
The mark [8] stands for this setting: 50 mg/kg IP, 83 days post treatment, Chal III/IV.
Setting [9] is: 50 mg/kg IP, 127 days post treatment, Chal III/IV.
Where [10] appears, read: 50 mg/kg IP, 169 days post treatment, Chal III/IV.
Setting [11] is: 50 mg/kg IP, 217 days post treatment, Adults.
Setting [12] is: 50 mg/kg IP, 217 days post treatment, Chal III/IV.
[13] abbreviates: 50 mg/kg IP, 217 days post treatment, PAI & PAII.
Where [14] appears, read: 50 mg/kg IP, 252 days post treatment, Chal IV/PAI.

For the molecule `COCCC(=O)NCc1ccc(C2=NOC(c3cc(Cl)cc(Cl)c3)(C(F)(F)F)C2)cc1C` (centres unmarked) [Example 18], the EC80 in test [1] is 0.05 µg/mL (≈ 0.102 µM).
As for `Cc1cc(C2=NOC(c3cc(Cl)cc(Cl)c3)(C(F)(F)F)C2)ccc1C(=O)NCc1ccccn1` (centres unmarked) [Example 2], the EC80 in test [1] came out at 0.05 µg/mL (≈ 0.0984 µM).
On the same count and under the same terms, to `N#Cc1cc(C2=NOC(c3cc(Cl)cc(Cl)c3)(C(F)(F)F)C2)ccc1-n1cncn1` (centres unmarked) [Example 6] belongs 0.05 µg/mL (≈ 0.111 µM); to `CCCC(=O)NCc1ccc(C2=NOC(c3cc(Cl)cc(Cl)c3)(C(F)(F)F)C2)cc1C` (centres unmarked) [Example 25], 0.05 µg/mL (≈ 0.106 µM).
For the molecule `O=C(NCC(F)(F)F)c1ccc(C2=NOC(c3cc(Cl)cc(Cl)c3)(C(F)(F)F)C2)c2ccccc12` (centres unmarked) [Example 8], the “effective against adult sea lice” value in test [2] (3 days post treatment) was determined as 100%. In addition, in test [2] (by 10 days post treatment), the “effective against developing chalimus stage” value is on record as 96%. The Efficacy in test [3] (setting [6]) is given as 99.5%; in test [3] (setting [7]) it was 100%; in test [3] (setting [8]), 100%; in test [3] (setting [9]), 100%; in test [3] (setting [10]) it was 100%; in test [3] (setting [11]), 97.3%. In addition, the Efficacy in test [3] (setting [12]) was 74.3%; in test [3] (setting [13]) it was 94.6%; in test [3] (50 mg/kg IP, 252 days post treatment, Adults), 84.9%; in test [3] (setting [14]), 29.8%; in test [3] (single IP injection 50 mg/kg in PEG300, for up to 7 months post treatment), “more than 90%”; in test [4], “more than 90%”. Further, the “Mean lice count of treated fish ± s.d.” value in test [3] (setting [6]) was determined as 0.1 ± 0.3; in test [3] (setting [7]) it was 0.0 ± 0.0; in test [3] (setting [8]), 0.0 ± 0.0; in test [3] (setting [9]), 0.0 ± 0.0; in test [3] (setting [10]), 0.0 ± 0.0; in test [3] (setting [11]), 0.5 ± 1.0. The “Mean lice count of treated fish ± s.d.” value in test [3] (setting [12]) was 22.9 ± 27.7; in test [3] (setting [13]), 4.5 ± 5.8; in test [3] (setting [14]), 21.4 ± 15.5. Besides, the EC80 in test [1] amounted to 0.05 µg/mL (≈ 0.0934 µM). Also, the “efficacy as a curative treatment (first challenge)” value in test [5] (lice assessed 34 days post treatment) stood at 100%. The “efficacy on the challenge performed 41 days post treatment” value in test [5] (second challenge with copepodids, assessed at adult stage) came out at 100%.
Turning to `Cc1cc(C2=NOC(c3cc(Cl)cc(Cl)c3)(C(F)(F)F)C2)ccc1CNC(=O)C1CCC1` (centres unmarked) [Example 30], the EC80 in test [1] was determined as 0.05 µg/mL (≈ 0.103 µM).
`O=C(NCc1ccccn1)c1ccc(C2=NOC(c3cc(Cl)cc(Cl)c3)(C(F)(F)F)C2)c2ccccc12` (centres unmarked) [Example 7]: the EC80 in test [1] turned out to be 0.05 µg/mL (≈ 0.0919 µM).
The same measure, in the same setting: for `Cc1cc(C2=NOC(c3cc(Cl)cc(Cl)c3)(C(F)(F)F)C2)ccc1CNC(=O)CCC#N` (centres unmarked) [Example 33] the value was 0.05 µg/mL (≈ 0.103 µM); for `Cc1cc(C2=NOC(c3cc(Cl)cc(Cl)c3)(C(F)(F)F)C2)ccc1C(=O)NCC(=O)NCC(F)(F)F` (centres unmarked) [Example 14], 0.05 µg/mL (≈ 0.0899 µM).
Still for that read-out and setting: to `Cc1cc(C2=NOC(c3cc(Cl)cc(Cl)c3)(C(F)(F)F)C2)ccc1-n1cncn1` (centres unmarked) [Example 1] belongs 0.05 µg/mL (≈ 0.113 µM); to `CCC(=O)NCc1ccc(C2=NOC(c3cc(Cl)cc(Cl)c3)(C(F)(F)F)C2)cc1C` (centres unmarked) [Example 17], 0.05 µg/mL (≈ 0.109 µM).
The same measure, in the same setting: to `O=C(CNC(=O)c1ccc(C2=NOC(c3cc(Cl)cc(Cl)c3)(C(F)(F)F)C2)c2ccccc12)NCC(F)(F)F` (centres unmarked) [Example 11] belongs 0.05 µg/mL (≈ 0.0844 µM); to `Cc1cc(C2=NOC(c3cc(Cl)cc(Cl)c3)(C(F)(F)F)C2)ccc1C(=O)NCC(F)(F)F` (centres unmarked) [Example 3], 0.05 µg/mL (≈ 0.1 µM).
Regarding `Cc1cc(C2=NOC(c3cc(Cl)cc(Cl)c3)(C(F)(F)F)C2)ccc1CNC(=O)CC1(C)OCCO1` (centres unmarked) [Example 26], the EC80 in test [1] came to 0.05 µg/mL (≈ 0.0941 µM).
For the molecule `CSCC(=O)NCc1ccc(C2=NOC(c3cc(Cl)cc(Cl)c3)(C(F)(F)F)C2)cc1C` (centres unmarked) [Example 28], the 80% effect concentration (EC80) in test [1] was found to be 0.05 µg/mL (≈ 0.102 µM).
Same read-out and setting: for `Cc1cc(C2=NOC(c3cc(Cl)cc(Cl)c3)(C(F)(F)F)C2)ccc1CNC(=O)C1CC1` (centres unmarked) [Example 24] the value was 0.05 µg/mL (≈ 0.106 µM).
Still for that read-out and setting: for `CC(=O)NCc1ccc(C2=NOC(c3cc(Cl)cc(Cl)c3)(C(F)(F)F)C2)cc1C` (centres unmarked) [Example 29] the value was 0.05 µg/mL (≈ 0.112 µM); for `Cc1cc(C2=NOC(c3cc(Cl)cc(Cl)c3)(C(F)(F)F)C2)ccc1CNC(=O)CC(C)C` (centres unmarked) [Example 31], 0.05 µg/mL (≈ 0.103 µM).
Take `CON/C=N/C(=O)c1ccc(C2=NOC(c3cc(Cl)cc(Cl)c3)(C(F)(F)F)C2)cc1C` (centres unmarked) [Example 16]: the EC80 in test [1] worked out at 0.05 µg/mL (≈ 0.105 µM).
With `CON/C=N\C(=O)c1ccc(C2=NOC(c3cc(Cl)cc(Cl)c3)(C(F)(F)F)C2)c2ccccc12` (centres unmarked) [Example 13], the 80% effect concentration (EC80) in test [1] was determined as 0.05 µg/mL (≈ 0.098 µM).
Still for that read-out and setting: to `CN(C)/C=N/C(=O)c1ccc(C2=NOC(c3cc(Cl)cc(Cl)c3)(C(F)(F)F)C2)c2ccccc12` (centres unmarked) [Example 12] belongs 0.05 µg/mL (≈ 0.0984 µM).
As to `COC(=O)CNC(=O)c1ccc(C2=NOC(c3cc(Cl)cc(Cl)c3)(C(F)(F)F)C2)c2ccccc12` (centres unmarked) [Example 10], the 80% effect concentration (EC80) in test [1] came out at 0.05 µg/mL (≈ 0.0952 µM).

The values are drawn from US9023836B2, “Use of substituted heterocyclic compounds to control sea lice on fish” (Novartis Tiergesundheit AG, priority 2010, dated 2015).
